Laboratory results published in patent US20060234955A1, “Cardiac glycosides to treat cystic fibrosis and other il-8 dependent disorders” (priority 2002, published 2006).

Columns and labels:
[1] = tested on: IL-8 from CFTE cells; assay: Hypersecretion of IL-8 from CFTE cells; settings: qualitative
[2] = tested on: cat; settings: intravenous administration, Merck Index; cited from earlier work
[3] = tested on: NFκB; settings: 1 μM concentration; variety of cultured cancer cells; cited from earlier work
[4] = Solubility in ethanol
[5] = tested on: cat; assay: LD50, intravenous administration to the cat (Merck Index)

Row | Structure (SMILES) | hypersecretion of IL-8 from CFTE cells [1] | LD50 [2] | TNFα-dependent activation of NFκB [3] | solubility [4] | LD-50-defined toxicity (concentration) ([5]; as restated) | concentration corresponding to LD50 ([5]; assuming body weight is all water and uniform distribution)
1 | CCCn1c(=O)c2[nH]c(C3CCCC3)nc2n(CCC)c1=O [CPX, 1,3-Dipropyl-8-Cyclopentyl xanthine] | suppressed | – | – | – | – | –
2 | CO[C@H]1C[C@H](O[C@H]2CC[C@@]3(C)[C@H](CC[C@@H]4[C@@H]3CC[C@]3(C)[C@@H](C5=CC(=O)OC5)[C@@H](OC(C)=O)C[C@]43O)C2)O[C@@H](C)[C@@H]1O [Compound I] | – | 0.3 mg/kg | suppresses | soluble in ethanol | ≥ 0.6 µM | 600 nM
